Measurements taken from US20240284907A1, “NOVEL DERIVATIVES OF NON-CODED AMINO ACIDS AND THEIR USE AS HERBICIDES” (FortePhest LTD., priority 2021, published 2024).

Legend:
[1] = test system: Romaine lettuce (Lactuca sativa L.) plants; test: Post-emergence herbicidal activity on potted Romaine lettuce plants (soil or foliar application); format: in vivo; settings: lettuce at 2 to 3 leaves, two weeks after treatment
Protocol: The tests were performed on Romaine lettuce (Lactuca sativa L.) plants at the stage 2 to 3 leaves. The plants were grown in mini-pots packed with soil, dimensions 2×2×5 cm, one plant per mini-pot. Test compounds were dissolved in 0.1% aqueous solution water solution of Silwet adjuvant to final concentrations ranging from 0 (Control) to 0.0001%. The test compounds were applied on soil (1 ml per pot) or foliar with airbrush (0.1 ml per pot). Each concentration was tested on 20 plants. Two weeks after the treatment the herbicidal effects of the respective test material were visually evaluated (aboveground part and roots. Then the aboveground part of the plants was neatly cut and weighed (wet weight) to assess the growth inhibition caused by the test compound. The growth inhibition (GI) was calculated as following: […]
Where Mt and Mc are median wet weight of treated and control plants, respectively. In the context of the invention, the herbicidal effect was assessed by concentration of the compound causing more than 85% of Growth Inhibition (GI) or irreversible damage of the plants (Table 3). Herbicidal activity of selected DHAAs is summarized in Table 4 (soil application) and Table 5 (Foliar application).

[2] = test system: Seeds of Lettuce R. (Super-Jericho); test: Filter paper bioassay with lettuce seeds: germination and early plant development, Minimal Effective Concentration (MEC); format: in vivo; settings: lettuce seeds on filter paper, 0 to 1 mmol/l, visually assessed after 6 days
Method in brief: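 Visual scoring on day 6 of radicle and shoot growth gives the MEC, the lowest dose deviating from control (no germination or malformation). Seeds (lettuce Super-Jericho, 10 per plate) sat on filter paper with 0–1 mmol/l aqueous compound, 48 h dark then 4 days 6/18 dark/light, in at least two repeats.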

2-(2-chloro-1,3-thiazol-4-yl)-2,2-difluoroethan-1-ol [compound 5724]
Score (test material causing more than 85% of Growth Inhibition or irreversible plant damage) ([1]; soil application): strong (0.01 to 0.05)
Score (activity score of Minimal Effective Concentration, MEC) [2]: Moderate (0.1 mM)

2-(5-chlorothiophen-3-yl)-2,2-difluoroacetic acid [compound 5625]
Score (test material causing more than 85% of Growth Inhibition or irreversible plant damage) ([1]; foliar application): strong (0.01 to 0.05)
Score (test material causing more than 85% of Growth Inhibition or irreversible plant damage) ([1]; soil application): strong (0.01 to 0.05)
Score (activity score of Minimal Effective Concentration, MEC) [2]: Strong (0.01 mM)

O=C(O)Cc1cc(Br)nc(Br)c1 [compound 689, 2-(2,6-dibromopyridin-4-yl)acetic acid]
Score (test material causing more than 85% of Growth Inhibition or irreversible plant damage) ([1]; soil application): moderate (0.5)
Score (activity score of Minimal Effective Concentration, MEC) [2]: Moderate (0.1 mM)

NC(=O)CCCc1cc(Cl)sc1Cl [compound 5600, 4-(2,5-dichlorothiophen-3-yl)butanamide]
Score (test material causing more than 85% of Growth Inhibition or irreversible plant damage) ([1]; soil application): moderate (0.5)
Score (activity score of Minimal Effective Concentration, MEC) [2]: Weak (Higher than 0.1 mM)

CC(=O)NCCc1cc(Cl)sc1Cl [compound 5629, N-[2-(2,5-dichlorothiophen-3-yl)ethyl]acetamide]
Score (test material causing more than 85% of Growth Inhibition or irreversible plant damage) ([1]; soil application): moderate (0.5)

CC(=O)NCCc1nc(Cl)sc1Cl [compound 5650, N-[2-(2,5-dichloro-1,3-thiazol-4-yl)ethyl]acetamide]
Score (test material causing more than 85% of Growth Inhibition or irreversible plant damage) ([1]; soil application): moderate (0.5)

COC(=O)C(Cl)c1cc(Cl)sc1Cl (stereo not drawn) [compound 5656, methyl 2-chloro-2-(2,5-dichlorothiophen-3-yl)acetate]
Score (test material causing more than 85% of Growth Inhibition or irreversible plant damage) ([1]; soil application): moderate (0.5)

CCOC(=O)Cc1nc(Br)sc1C [compound 5661, ethyl 2-(2-bromo-5-methyl-1,3-thiazol-4-yl)acetate]
Score (test material causing more than 85% of Growth Inhibition or irreversible plant damage) ([1]; foliar application): moderate (0.5)
Score (test material causing more than 85% of Growth Inhibition or irreversible plant damage) ([1]; soil application): moderate (0.5)
Score (activity score of Minimal Effective Concentration, MEC) [2]: Moderate (0.1 mM)

O=C(Cc1cc(Cl)sc1Cl)OCc1ccccc1 [compound 5669, benzyl 2-(2,5-dichlorothiophen-3-yl)acetate]
Score (test material causing more than 85% of Growth Inhibition or irreversible plant damage) ([1]; foliar application): strong (0.01 to 0.05)
Score (test material causing more than 85% of Growth Inhibition or irreversible plant damage) ([1]; soil application): strong (0.01 to 0.05)

CONCCc1cc(Cl)sc1Cl [compound 5670, 2-(2,5-dichlorothiophen-3-yl)-N-methoxyethan-1-amine]
Score (test material causing more than 85% of Growth Inhibition or irreversible plant damage) ([1]; soil application): moderate (0.5)
Score (activity score of Minimal Effective Concentration, MEC) [2]: Moderate (0.1 mM)

CCOC(=O)C(F)(F)c1csc(C(F)(F)F)n1 [compound 5781]
Score (test material causing more than 85% of Growth Inhibition or irreversible plant damage) ([1]; foliar application): strong (0.01 to 0.05)
Score (activity score of Minimal Effective Concentration, MEC) [2]: Strong (0.01 mM)

O=C(O)/C(F)=C(\F)c1ccc(Br)nc1 [compound 6638, (2E)-3-(6-bromopyridin-3-yl)-2,3-difluoroprop-2-enoic acid]
Score (test material causing more than 85% of Growth Inhibition or irreversible plant damage) ([1]; soil application): moderate (0.5)
Score (activity score of Minimal Effective Concentration, MEC) [2]: Moderate (0.1 mM)

O=C(O)C(F)(F)c1cccc(Cl)n1 [compound 6667, (6-chloropyridin-2-yl)(difluoro)acetic acid]
Score (test material causing more than 85% of Growth Inhibition or irreversible plant damage) ([1]; soil application): strong (0.01 to 0.05)
Score (activity score of Minimal Effective Concentration, MEC) [2]: Strong (0.01 mM)

(2-bromopyridin-4-yl)acetic acid [compound 678]
Score (test material causing more than 85% of Growth Inhibition or irreversible plant damage) ([1]; soil application): weak (1.0)
Score (activity score of Minimal Effective Concentration, MEC) [2]: Strong (0.01 mM)

(2E)-3-(2-bromopyridin-4-yl)-N-(4-hydroxyphenyl)prop-2-enamide [compound 6610]
Score (test material causing more than 85% of Growth Inhibition or irreversible plant damage) ([1]; soil application): moderate (0.5)
Score (activity score of Minimal Effective Concentration, MEC) [2]: Moderate (0.1 mM)

[6-chloro-5-(trifluoromethyl)pyridin-2-yl](difluoro)acetic acid [compound 6671]
Score (test material causing more than 85% of Growth Inhibition or irreversible plant damage) ([1]; soil application): strong (0.01 to 0.05)
Score (activity score of Minimal Effective Concentration, MEC) [2]: Strong (0.01 mM)

benzyl (6-bromopyridin-2-yl)(difluoro)acetate [compound 6646]
Score (test material causing more than 85% of Growth Inhibition or irreversible plant damage) ([1]; soil application): strong (0.01 to 0.05)
Score (activity score of Minimal Effective Concentration, MEC) [2]: Strong (0.01 mM)

dichloro-1,3-thiazole-4-carboxamide [compound 5616]
Score (activity score of Minimal Effective Concentration, MEC) [2]: Moderate (0.1 mM)

difluoro(6-fluoropyridin-2-yl)acetic acid [compound 6664]
Score (test material causing more than 85% of Growth Inhibition or irreversible plant damage) ([1]; soil application): strong (0.01 to 0.05)
Score (activity score of Minimal Effective Concentration, MEC) [2]: Strong (0.01 mM)

difluoro[4-(trifluoromethyl)-1,3-thiazol-2-yl]acetic acid [compound 5760]
Score (activity score of Minimal Effective Concentration, MEC) [2]: Moderate (0.1 mM)

ethyl 2-(2-amino-5-chloro-1,3-thiazol-4-yl)-2,2-difluoroacetate [compound 5729]
Score (activity score of Minimal Effective Concentration, MEC) [2]: Weak (Higher than 0.1 mM)

ethyl 2-(2-bromo-1,3-thiazol-4-yl)acetate [compound 5663]
Score (test material causing more than 85% of Growth Inhibition or irreversible plant damage) ([1]; foliar application): strong (0.01 to 0.05)
Score (test material causing more than 85% of Growth Inhibition or irreversible plant damage) ([1]; soil application): moderate (0.5)
Score (activity score of Minimal Effective Concentration, MEC) [2]: Moderate (0.1 mM)

ethyl 2-(2-chlorooxazol-4-yl)-2,2-difluoroacetate [compound 5783]
Score (activity score of Minimal Effective Concentration, MEC) [2]: Moderate (0.1 mM)

ethyl difluoro[5-(trifluoromethyl)thiophen-3-yl]acetate [compound 5707]
Score (activity score of Minimal Effective Concentration, MEC) [2]: Weak (Higher than 0.1 mM)

methyl 2-(2-bromopyridin-4-yl)-2,2-difluoroacetate [compound 6629]
Score (activity score of Minimal Effective Concentration, MEC) [2]: Moderate (0.1 mM)

naphthalene-2-carboxylic acid [compound 691]
Score (activity score of Minimal Effective Concentration, MEC) [2]: Weak (Higher than 0.1 mM)

propyl[2-(1H-1,2,4-triazol-3-yl)ethyl]amine [compound 5660]
Score (activity score of Minimal Effective Concentration, MEC) [2]: Weak (Higher than 0.1 mM)

sodium 2-(2-chloro-1,3-thiazol-5-yl)-2,2-difluoroacetate [compound 5721]
Score (activity score of Minimal Effective Concentration, MEC) [2]: Moderate (0.1 mM)

{2-[(6-amino-9H-purin-9-yl)methoxy]ethoxy}methyl(2-chloro-1,3-thiazol-4-yl)acetate [compound 5752]
Score (activity score of Minimal Effective Concentration, MEC) [2]: Moderate (0.1 mM)
